Experimental data taken from patent US4307114A, “Aldose reductase inhibition by (Z)-5-fluoro-2-methyl-1-[[4-(methylsulfinyl)phenyl]methylene]-1H-indene- 3-acetic acid” (Ayerst, McKenna & Harrison, Inc., priority 1980, dated 1981).

What was measured:
lens aldose reductase = biological target: T1, lens aldose reductase (Bos taurus, UniProt P16116); assay: in vitro aldose reductase inhibition test (modified Hayman and Kinoshita procedure, enzyme from bovine lens); format: biochemical
T1 construct: preparation of the enzyme from bovine lens; from tissue; host or cells: bovine lens
Protocol: In the present case the procedure of Hayman and Kinoshita is modified in that the final chromatography step is omitted in the preparation of the enzyme from bovine lens.
The following results were obtained when sulindac was evaluated in the above in vitro test: […]

galactosaemic rats = assay: dulcitol accumulation in lenses and sciatic nerves of galactosaemic rats; format: in vivo, rat; conditions: for Dulcitol Accumulation Sicatic Nerves Percent Decrease / Dulcitol Accumulation Lenses Percent Decrease / Dulcitol Accumulation Sicatic Nerves / Dulcitol Accumulation Lenses: four days
From the text: The aldose reductase inhibiting property of sulindac and its utilization in diminishing and alleviating diabetic complications also are demonstrable in experiments using galactosaemic rats, see D. Dvornik et al., Science, 182, 1146 (1973). Such experiments are exemplified hereinbelow after the listing of the following general comments pertaining to these experiments:
(a) Four or more groups of six male rats, 50-70 g, Sprague-Dawley strain, were used. The first group, the control group, was fed a mixture of laboratory chow (rodent laboratory chow, Purina) and glucose at 20% (w/w %) concentration. The untreated galactosaemic group was fed a similar diet in which galactose is substituted for glucose. The other groups were fed diets containing various amounts of sulindac in the galactose containing diet. The concentration of galactose in the diet of the treated groups was the same as that for the untreated galactosaemic group.
(b) After four days, the animals were killed by decapitation. The eyeballs were removed and punctured with a razor blade; the freed lenses were rolled gently on filter paper and weighed. The sciatic nerves were dissected as completely as possible and weighed. Both tissues were frozen and kept up to two weeks before being analyzed for dulcitol.
(c) The tissues were homoginized in 5% (w/v) trichloroacetic acid and the polyol determination on the extracts was performed by a modification of the procedure of M. Kraml and L. Cosyns, Clin. Biochem., 2, 373 (1969). Only two minor reagent changes were made: (a) The rinsing mixture was an aqueous 5% (w/v) trichloroacetic acid solution and (b) the stock solution was prepared by dissolving 25 mg of dulcitol in 100 ml of an aqueous trichloroacetic acid solution. [N.B.: For each experiment the average value found in the tissue from rats fed the glucose diet was substracted from the individual values found in the corresponding rat tissue to obtain the amount of polyol accumulated].

[1] = Experiment 2, 62 mg/kg/day in diet, p < 0.01

Percent Inhibition (lens aldose reductase; concentration 10^-5 Mole/l): 88%
Percent Inhibition (lens aldose reductase; concentration 10^-6 Mole/l): 60%
Percent Inhibition (lens aldose reductase; concentration 10^-7 Mole/l): 18%
SMILES: CC1=C(CC(=O)O)c2cc(F)ccc2/C1=C\c1ccc([S+](C)[O-])cc1 (stereo not drawn) [Sulindac, (Z)-5-Fluoro-2-methyl-1-[[4-(methylsulfinyl)phenyl]methylene]-1H-indene-3-acetic acid]
inhibition of lens aldose reductase (in words) (lens aldose reductase): potent inhibitor of lens aldose reductase
Dulcitol Accumulation Sicatic Nerves Percent Decrease (galactosaemic rats; Experiment 1, 31 mg/kg/day in diet, p < 0.001): 39%
Dulcitol Accumulation Lenses Percent Decrease (galactosaemic rats; Experiment 1, 31 mg/kg/day in diet, t test N.S.): 8%
Dulcitol Accumulation Sicatic Nerves (galactosaemic rats; Experiment 1, 31 mg/kg/day in galactose diet, untreated 1.67 ± 0.08): 1.02 ± 0.09 µg/mg
Dulcitol Accumulation Lenses (galactosaemic rats; Experiment 1, 31 mg/kg/day in galactose diet, untreated 12.01 ± 0.38): 11.10 ± 0.28 µg/mg
Dulcitol Accumulation Lenses Percent Decrease (galactosaemic rats; Experiment 2, 25 mg/kg/day in diet, p < 0.01): 14%
Dulcitol Accumulation Sicatic Nerves Percent Decrease (galactosaemic rats; Experiment 2, 25 mg/kg/day in diet, t test N.S.): 36%
Dulcitol Accumulation Sicatic Nerves (galactosaemic rats; Experiment 2, 25 mg/kg/day in galactose diet, untreated 1.30 ± 0.14): 0.83 ± 0.19 µg/mg
Dulcitol Accumulation Lenses (galactosaemic rats; Experiment 2, 25 mg/kg/day in galactose diet, untreated 12.10 ± 0.30): 10.46 ± 0.32 µg/mg
Dulcitol Accumulation Lenses Percent Decrease (galactosaemic rats; Experiment 2, 47 mg/kg/day in diet, p < 0.01): 12%
Dulcitol Accumulation Sicatic Nerves Percent Decrease (galactosaemic rats; Experiment 2, 47 mg/kg/day in diet, p < 0.05): 34%
Dulcitol Accumulation Sicatic Nerves (galactosaemic rats; Experiment 2, 47 mg/kg/day in galactose diet, untreated 1.30 ± 0.14): 0.85 ± 0.10 µg/mg
Dulcitol Accumulation Lenses (galactosaemic rats; Experiment 2, 47 mg/kg/day in galactose diet, untreated 12.10 ± 0.30): 10.71 ± 0.22 µg/mg
Dulcitol Accumulation Lenses Percent Decrease (galactosaemic rats; [1]): 17%
Dulcitol Accumulation Sicatic Nerves Percent Decrease (galactosaemic rats; [1]): 49%
Dulcitol Accumulation Sicatic Nerves (galactosaemic rats; Experiment 2, 62 mg/kg/day in galactose diet, untreated 1.30 ± 0.14): 0.67 ± 0.04 µg/mg
Dulcitol Accumulation Lenses (galactosaemic rats; Experiment 2, 62 mg/kg/day in galactose diet, untreated 12.10 ± 0.30): 10.06 ± 0.43 µg/mg
accumulation of dulcitol in the lenses and sciatic nerves of rats fed galactose (in words) (galactosaemic rats; as compared to an untreated animal): diminishes and alleviates the accumulation of dulcitol
